# Assay results reported in publication PMC12040169 (PLOS Biology, 2025).
# Assay: in vitro
# Details: human, hela cells, % viability
row,SMILES,"viability at 28.5 h, 10 µM [%]"
1,COc1ccc(OC)c(CN(C(=O)c2oc3ccc(F)cc3c2C)c2cnn(C)c2)c1 [CBK298278],89.1
2,COc1ccc(-c2noc(COc3cccc(C(=O)O)c3)n2)c(OC)c1 [CBK298279],101
3,Cc1ccc(Cn2ncc3c(C(=O)N4CCC(N(C)S(C)(=O)=O)CC4)cc(C)nc32)cc1 [CBK298280],102
4,Cc1cc(Cc2cnc(NC(=O)C3CCS(=O)(=O)C3)s2)ccc1Br (stereo not shown) [CBK298281],90
5,COc1ccc(SC(C)C(=O)N2CCN(c3ccc([N+](=O)[O-])nc3)CC2)cc1 (stereo not shown) [CBK298282],93.5
6,CN(Cc1cccnc1)C(=O)CSC(c1ccccc1)c1ccccc1 [CBK298284],90.7
7,Cc1cn2nc(N3CCN(S(=O)(=O)c4ccccc4[N+](=O)[O-])CC3)sc2n1 [CBK298288],111
8,CCOc1cc(-c2nc3sc(CC)cc3c(=O)[nH]2)ccc1OCC(=O)O [CBK298291],88.4
9,O=C(Nc1ncc(-c2ccccc2)s1)c1csc([N+](=O)[O-])c1 [CBK298293],87.4
10,COC(=O)c1cccc(C(=O)Nc2ncc(-c3ccccc3)s2)c1 [CBK298294],89.7
11,CN(C)C(CNS(=O)(=O)c1cc2c(cc1Br)NC(=O)CO2)c1ccc(F)cc1 (stereo not shown) [CBK298296],105
12,COc1cc(CNC(=O)c2ccc(O)nc2)ccc1OCc1ccncc1 [CBK298297],96.9
13,Cc1nnc(C(C)Sc2nnc(-c3ccc(F)cc3)n2CC2CCCO2)o1 (stereo not shown) [CBK298298],94.4
14,Cc1cc(C(=O)NCc2ccnc(N3CCOCC3)c2)c(C)n1-c1cccc(Cl)c1 [CBK298301],81.9
15,CCN(CC)CCn1c(NC(=O)c2c(Cl)nc3ccccn23)nc2ccccc21 [CBK298305],107
16,CN(Cc1cc(Br)cs1)C(=O)CCN1C(=O)COc2ccccc21 [CBK298308],90
17,CCc1c(C(=O)NCc2cccnc2-n2cncn2)cnn1-c1ccc(OC)nn1 [CBK298309],90.5
18,Cc1cccn2cc(COC(=O)c3ccc(F)cc3N)nc12 [CBK298310],54.1
19,CCOc1ccc(C(=O)N2CCN(S(=O)(=O)c3ccc(C)cc3C)CC2)cn1 [CBK298313],93.3
20,COc1ccc(CC(=O)O)cc1S(=O)(=O)Nc1ccc(SC)cc1 [CBK298315],81
21,Cc1nc([N+](=O)[O-])cn1CCC(=O)Nc1ccccc1Oc1ccccc1Cl [CBK298319],101
22,O=C(NCC(O)COc1ccccc1)c1cnn2c(-c3ccccc3)ccnc12 (stereo not shown) [CBK298320],99

row,SMILES,"viability at 28.5 h, 10 µM [%]"
1,Cc1ccc(CC(C#N)Sc2nc(CN3CCOCC3)nc3ccccc23)cc1 (stereo not shown) [CBK298321],82
2,Cc1ccc(-c2nc(C)c(C(=O)NCc3ccnc(-n4ccnc4)c3)s2)o1 [CBK298322],105
3,O=C(Nc1ccc(Oc2ncccn2)cc1)c1csc(-c2ccccc2)n1 [CBK298324],85.5
4,O=C(O)c1ccn(-c2ccc(NS(=O)(=O)c3ccc(N4CCCC4=O)cc3)cc2)n1 [CBK298327],102
5,CC(SCc1ccccc1)C(=O)NCC1CCN(c2ccccc2)C1 (stereo not shown) [CBK298329],89.5
6,COc1ccccc1CN(C(=O)Nc1ccccc1Cl)C1CC1 [CBK298332],97.2
7,COc1cccc(NS(=O)(=O)c2cc(CC(=O)O)ccc2OC)c1 [CBK298333],93.9
8,NC(=O)c1ccccc1NC(=O)Cc1ccc2c(c1)CCCC2 [CBK298334],88.9
9,COc1cc(C(C)NC(=O)c2ccc(=O)[nH]n2)ccc1OC1CCCC1 (stereo not shown) [CBK298335],89.7
10,Cc1nccn1CC(C)CNc1ccc(C(=O)c2ccccc2)cc1[N+](=O)[O-] (stereo not shown) [CBK298336],80.4
11,O=C(NC1CCCN(c2ncccn2)C1)c1ccc(-c2ccc(F)cc2)s1 (stereo not shown) [CBK298337],88.5
12,Cc1[nH]c2c(C(=O)Nc3cccc(CN4CCOC4=O)c3)cccc2c1C [CBK298338],90.3
13,O=C(Cc1csc(-c2c(Cl)cccc2Cl)n1)NC[C@H]1CC[C@H](C(=O)O)CC1 [CBK299767],85.7
14,CC(C)(CC(=O)O)CC(=O)Nc1ccc2c(c1)ncn2CCc1ccccc1 [CBK299768],91.7
15,CC1Oc2ccc(S(=O)(=O)Nc3ccc(CCC(=O)O)cc3)cc2NC1=O (stereo not shown) [CBK299769],92.3
16,Cc1cc2c(cc1S(=O)(=O)NCCOc1cccc(C(=O)O)c1)OCC(=O)N2 [CBK299770],88.3
17,CCOc1ccc(-c2cc(C(=O)Nc3cccc(C(=O)O)c3)no2)cc1 [CBK299776],93.9
18,O=C(O)c1cccc(NC(=O)c2ccc(COc3ccc(-c4ccccc4)cc3)o2)c1 [CBK299778],105
19,O=C(O)c1cccc(OCCNS(=O)(=O)c2ccc(N3CCCC3=O)cc2)c1 [CBK299779],97.3
20,CS(=O)(=O)N1CCCC(C(=O)Nc2cccc3cccnc23)C1 (stereo not shown) [CBK299783],90.8
21,O=C(O)C1CC=CCC1C(=O)N1CCN(C(=O)c2ccco2)CC1 (stereo not shown) [CBK299784],94.1
22,O=C(CSc1n[nH]c(=O)n1C1CCCCC1)NCc1ccc(N2CCCC2=O)cc1 [CBK299785],105

row,SMILES,"viability at 28.5 h, 10 µM [%]"
1,CCOc1ccc2nc(NS(=O)(=O)c3cc(C(=O)O)c(Cl)cc3Cl)sc2c1 [CBK299789],109
2,CCCCOc1ccc(-c2nonc2NC(=O)COc2ccccc2Cl)cc1 [CBK299792],117
3,O=C(O)c1cccc(S(=O)(=O)Nc2nc3ccc(Cl)cc3s2)c1 [CBK299793],103
4,CC(=O)c1cccc(NC(=O)Nc2ccc(S(=O)(=O)Nc3cc(C)on3)cc2)c1 [CBK299794],111
5,CC(C)(CC(=O)O)CC(=O)Nc1ccc(-c2nc3ccccc3s2)cc1 [CBK299796],104
6,CC(=O)c1ccc(NC(=O)CSc2ncccc2C(=O)O)cc1 [CBK299798],94.4
7,O=C(O)CCCNS(=O)(=O)c1ccc(C2CCCCC2)cc1 [CBK299800],95.2
8,CC(C)CC(=O)Nc1ccc2nc(SCC(=O)O)sc2c1 [CBK299801],96.4
9,COc1cccc(-c2csc(NS(=O)(=O)c3ccc(C)c(C(=O)O)c3)n2)c1 [CBK299803],99.1
10,O=C(O)c1cc(S(=O)(=O)NCCCN2CCOCC2)ccc1Cl [CBK299804],96.8
11,O=C(O)c1cc(/C=C/c2ccc(Br)cc2)nc2ccccc12 [CBK299805],94.3
12,CC(=O)N(c1ccc2oc3c(c2c1)CCCC3)S(=O)(=O)c1ccc(C(=O)O)cc1 [CBK299808],92.5
13,O=C(O)c1cccc(N2C(=O)c3cccc4c(C(=O)c5ccccc5)ccc(c34)C2=O)c1 [CBK299809],74.2
14,CCOc1ccc(S(=O)(=O)Nc2ccc(O)c(C(=O)O)c2)cc1 [CBK299810],93.5
15,Cc1ccc2cc(S(=O)(=O)Nc3cccc(C(=O)O)c3)ccc2c1 [CBK299812],101
16,COc1cc(-c2nnc(CSCc3n[nH]c(=O)[nH]3)o2)cc(OC)c1OC [CBK299814],99.5
17,Cc1nc(-c2ccc(NC(=O)C3CC=CCC3C(=O)O)cc2)cs1 (stereo not shown) [CBK299815],99.4
18,Cc1ccc2cc(S(=O)(=O)NCCCC(=O)O)ccc2c1 [CBK299818],95.8
19,Cc1cc(C(C)(C)C)cc(S(=O)(=O)Nc2ccc(C(=O)O)c(O)c2)c1C [CBK299820],88.3
20,O=C(Cc1ccc(F)cc1)Nc1cccc(-c2noc(-c3ccc(F)cc3)n2)c1 [CBK299821],89
21,CC(C)COc1ccc(-c2nonc2NC(=O)c2cccs2)cc1 [CBK299822],103
22,O=C(O)c1ccc(NC(=O)c2cccc(NC(=O)c3cccc4ccccc34)c2)cc1 [CBK299823],101

row,SMILES,"viability at 28.5 h, 10 µM [%]"
1,CC(C)c1ccc(NC(=O)CSc2n[nH]c(=O)n2-c2ccccc2)cc1 [CBK299826],89.3
2,O=C(O)c1ccc(NS(=O)(=O)c2ccc3c(c2)C(=O)c2ccccc2C3=O)cc1 [CBK299828],88.3
3,CC(C)COc1ccc(-c2nonc2NC(=O)c2ccccc2F)cc1 [CBK299831],86
4,O=C(CSc1ncccc1C(=O)O)Nc1nnc(Cc2ccccc2)s1 [CBK299835],97.1
5,O=C(O)c1cccc(N2C(=O)c3cccc4c(Cl)ccc(c34)C2=O)c1 [CBK299836],90.3
6,CCOc1ccc(S(=O)(=O)Nc2ccc(C(=O)O)c(O)c2)cc1 [CBK299837],94.2
7,CCN1C(=O)c2cccc3c(S(=O)(=O)Nc4cccc(C(=O)O)c4)ccc1c23 [CBK299838],97.5
8,Cn1c(=O)n(C)c2cc(S(=O)(=O)Nc3ccc(Cl)c(C(=O)O)c3)ccc21 [CBK299841],90.8
9,N#Cc1c(NC(=O)CSc2nnnn2-c2ccc(C(=O)O)cc2)sc2c1CCCC2 [CBK299876],87.6
10,CC(C)c1ccc(-c2csc(Nc3cccc(C(=O)O)c3)n2)cc1 [CBK299880],104
11,Cc1ccc(CN2CC(C(=O)N3CCC(C(=O)O)CC3)CC2=O)cc1 (stereo not shown) [CBK300205],91.8
12,COc1ccc(CSc2nnc(SCc3ccc(C(=O)O)cc3)s2)cc1 [CBK300477],104
13,Clc1ccc(Cn2ncc3c(NCc4cccnc4)ncnc32)cc1 [CBK300478],94.9
14,Cc1ccc(OCC(=O)N2CCN(C(=O)c3ccncc3)CC2)cc1 [CBK300480],92.3
15,Cc1ccc2oc(-c3cccc(NC(=O)c4ccccc4C(=O)O)c3)nc2c1 [CBK300481],109
16,N=C(N)NC1=NC(=O)C(CC(=O)Nc2ccc(Oc3ccccc3)cc2)S1 (stereo not shown) [CBK300482],105
17,Cc1ccc(OCCSc2nc3ccccc3n2CC(=O)O)c(C(C)C)c1 [CBK300483],105
18,O=C(Nc1ncc(Cc2ccc(F)cc2)s1)c1csc2c1CCCC2 [CBK300489],90.2
19,CCCCOc1ccc(C(=O)N/C(=C/c2ccco2)C(=O)Nc2cccc(C(=O)O)c2)cc1 [CBK300491],92.4
